Results published in ChEMBL document CHEMBL5291721, “A preclinical secondary pharmacology resource illuminates target-adverse drug reaction associations of marketed drugs” (Nat Commun, 2023).

Assays:
[1] = biological target: T1, Alpha-1A adrenergic receptor (Homo sapiens, UniProt P35348); format: functional, cell-based
T1 sequence (P35348 whole entry): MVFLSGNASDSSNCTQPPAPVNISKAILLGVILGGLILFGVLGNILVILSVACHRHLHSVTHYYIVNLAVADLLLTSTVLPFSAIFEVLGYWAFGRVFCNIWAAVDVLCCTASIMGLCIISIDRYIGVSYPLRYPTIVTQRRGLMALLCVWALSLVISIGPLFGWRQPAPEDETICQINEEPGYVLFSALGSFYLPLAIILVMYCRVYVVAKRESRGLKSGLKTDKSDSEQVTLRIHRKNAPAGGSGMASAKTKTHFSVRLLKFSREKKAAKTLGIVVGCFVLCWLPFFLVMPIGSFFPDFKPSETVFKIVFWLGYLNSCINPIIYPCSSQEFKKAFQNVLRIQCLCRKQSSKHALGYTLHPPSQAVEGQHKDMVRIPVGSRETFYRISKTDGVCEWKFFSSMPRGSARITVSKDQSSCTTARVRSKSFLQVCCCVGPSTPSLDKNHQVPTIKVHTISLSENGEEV

[2] = biological target: T2, Muscarinic acetylcholine receptor M2 (Homo sapiens, UniProt P08172); format: functional, cell-based
T2 sequence (P08172 whole entry): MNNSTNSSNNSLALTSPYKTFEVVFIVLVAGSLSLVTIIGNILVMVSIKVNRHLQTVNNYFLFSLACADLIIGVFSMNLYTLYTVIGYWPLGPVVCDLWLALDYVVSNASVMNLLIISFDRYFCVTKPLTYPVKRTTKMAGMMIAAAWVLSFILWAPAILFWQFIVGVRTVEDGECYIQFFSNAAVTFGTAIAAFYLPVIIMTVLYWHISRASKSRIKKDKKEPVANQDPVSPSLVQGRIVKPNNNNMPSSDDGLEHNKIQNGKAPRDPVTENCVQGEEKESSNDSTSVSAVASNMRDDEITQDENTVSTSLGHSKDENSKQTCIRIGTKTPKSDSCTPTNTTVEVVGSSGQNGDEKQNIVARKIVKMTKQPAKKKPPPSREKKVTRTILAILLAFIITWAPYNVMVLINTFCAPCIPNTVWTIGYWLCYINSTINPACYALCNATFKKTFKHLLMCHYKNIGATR

[3] = biological target: 3',5'-cyclic-AMP phosphodiesterase 4A (Homo sapiens, UniProt P27815); format: functional
3',5'-cyclic-AMP phosphodiesterase 4A, sequence (P27815 whole entry): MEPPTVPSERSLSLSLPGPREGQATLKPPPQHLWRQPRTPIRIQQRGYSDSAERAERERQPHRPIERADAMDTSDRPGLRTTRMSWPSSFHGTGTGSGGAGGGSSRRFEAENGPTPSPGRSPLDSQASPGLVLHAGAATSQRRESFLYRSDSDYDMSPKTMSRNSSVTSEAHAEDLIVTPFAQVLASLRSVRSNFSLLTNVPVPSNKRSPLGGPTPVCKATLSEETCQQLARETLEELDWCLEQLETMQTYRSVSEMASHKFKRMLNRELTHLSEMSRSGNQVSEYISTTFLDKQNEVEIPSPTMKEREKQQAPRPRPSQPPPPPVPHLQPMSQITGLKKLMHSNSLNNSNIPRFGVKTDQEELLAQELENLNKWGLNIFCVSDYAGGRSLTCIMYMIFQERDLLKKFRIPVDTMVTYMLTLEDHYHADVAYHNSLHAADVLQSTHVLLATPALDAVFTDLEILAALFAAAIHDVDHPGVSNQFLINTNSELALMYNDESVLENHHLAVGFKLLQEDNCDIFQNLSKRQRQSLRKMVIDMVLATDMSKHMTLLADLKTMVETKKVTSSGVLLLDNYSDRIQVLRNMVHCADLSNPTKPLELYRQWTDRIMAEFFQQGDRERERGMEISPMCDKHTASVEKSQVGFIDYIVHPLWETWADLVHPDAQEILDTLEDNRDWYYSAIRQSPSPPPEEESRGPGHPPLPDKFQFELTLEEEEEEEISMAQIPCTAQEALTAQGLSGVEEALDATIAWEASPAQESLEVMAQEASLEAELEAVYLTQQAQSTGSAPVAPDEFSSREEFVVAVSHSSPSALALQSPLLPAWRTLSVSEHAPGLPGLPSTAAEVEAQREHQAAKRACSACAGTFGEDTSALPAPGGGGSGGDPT

Mu-type opioid receptor = Mu-type opioid receptor (Homo sapiens, UniProt P35372)
Mu-type opioid receptor, sequence (P35372 whole entry): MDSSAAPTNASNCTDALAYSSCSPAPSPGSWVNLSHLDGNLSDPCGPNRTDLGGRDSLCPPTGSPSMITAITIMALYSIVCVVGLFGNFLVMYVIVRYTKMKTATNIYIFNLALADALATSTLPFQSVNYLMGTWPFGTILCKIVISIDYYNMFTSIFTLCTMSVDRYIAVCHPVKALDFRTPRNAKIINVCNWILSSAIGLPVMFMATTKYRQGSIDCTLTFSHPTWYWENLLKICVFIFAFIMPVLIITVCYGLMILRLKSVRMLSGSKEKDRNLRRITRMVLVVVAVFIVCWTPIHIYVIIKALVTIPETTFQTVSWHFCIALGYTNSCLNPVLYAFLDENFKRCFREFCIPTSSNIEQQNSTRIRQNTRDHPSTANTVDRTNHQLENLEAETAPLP

[4] = biological target: Beta-2 adrenergic receptor (Homo sapiens, UniProt P07550); format: functional, cell-based
Beta-2 adrenergic receptor, sequence (P07550 whole entry): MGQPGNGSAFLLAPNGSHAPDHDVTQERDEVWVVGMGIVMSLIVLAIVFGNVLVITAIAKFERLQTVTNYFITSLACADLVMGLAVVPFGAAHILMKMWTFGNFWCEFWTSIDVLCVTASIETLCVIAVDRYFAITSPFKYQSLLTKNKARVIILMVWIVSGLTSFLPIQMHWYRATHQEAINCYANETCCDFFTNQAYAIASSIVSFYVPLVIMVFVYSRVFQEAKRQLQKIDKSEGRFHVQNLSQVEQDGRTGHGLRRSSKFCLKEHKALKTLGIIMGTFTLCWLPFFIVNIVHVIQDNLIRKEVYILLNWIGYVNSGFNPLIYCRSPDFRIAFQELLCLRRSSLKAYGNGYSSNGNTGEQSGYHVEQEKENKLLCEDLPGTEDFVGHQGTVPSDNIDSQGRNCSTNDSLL

Prothrombin = Prothrombin (Homo sapiens, UniProt P00734); format: functional
[5] = biological target: Voltage-dependent L-type calcium channel subunit alpha-1C (Rattus norvegicus, UniProt P22002); format: functional
[6] = biological target: T1, Alpha-1A adrenergic receptor; format: functional, cell-based; remark: listed apart in the source
[7] = biological target: Sodium-dependent noradrenaline transporter (Homo sapiens, UniProt P23975)
Sodium-dependent noradrenaline transporter, sequence (P23975 whole entry): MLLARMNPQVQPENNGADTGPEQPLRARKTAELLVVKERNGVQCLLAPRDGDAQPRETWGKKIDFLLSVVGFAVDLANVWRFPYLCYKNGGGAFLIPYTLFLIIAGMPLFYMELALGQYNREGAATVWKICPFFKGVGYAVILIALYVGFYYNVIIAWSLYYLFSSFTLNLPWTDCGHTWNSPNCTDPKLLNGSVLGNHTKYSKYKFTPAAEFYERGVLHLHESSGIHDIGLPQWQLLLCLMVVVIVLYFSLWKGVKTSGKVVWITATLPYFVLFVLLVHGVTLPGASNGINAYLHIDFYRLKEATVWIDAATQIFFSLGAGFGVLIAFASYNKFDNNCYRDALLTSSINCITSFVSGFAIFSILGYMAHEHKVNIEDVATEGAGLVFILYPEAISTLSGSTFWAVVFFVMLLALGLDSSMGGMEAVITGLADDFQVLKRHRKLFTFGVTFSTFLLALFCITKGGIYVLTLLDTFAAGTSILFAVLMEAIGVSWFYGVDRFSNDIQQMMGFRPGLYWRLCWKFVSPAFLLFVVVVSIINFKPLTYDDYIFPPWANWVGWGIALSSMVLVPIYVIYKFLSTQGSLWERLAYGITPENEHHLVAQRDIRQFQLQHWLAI

[8] = biological target: T3, Alpha-2A adrenergic receptor (Homo sapiens, UniProt P08913)
T3 sequence (P08913 whole entry): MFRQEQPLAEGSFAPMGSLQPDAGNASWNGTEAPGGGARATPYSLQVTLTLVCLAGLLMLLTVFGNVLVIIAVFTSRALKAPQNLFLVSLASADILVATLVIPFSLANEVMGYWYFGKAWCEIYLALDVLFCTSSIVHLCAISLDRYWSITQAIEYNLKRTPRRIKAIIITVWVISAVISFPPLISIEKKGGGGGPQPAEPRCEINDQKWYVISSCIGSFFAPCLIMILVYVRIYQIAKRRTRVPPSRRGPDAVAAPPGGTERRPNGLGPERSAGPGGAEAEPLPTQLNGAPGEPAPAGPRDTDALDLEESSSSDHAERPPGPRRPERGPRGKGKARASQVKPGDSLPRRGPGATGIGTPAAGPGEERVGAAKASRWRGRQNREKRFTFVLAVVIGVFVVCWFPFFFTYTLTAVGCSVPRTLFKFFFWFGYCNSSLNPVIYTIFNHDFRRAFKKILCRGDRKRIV

Vasopressin V1a receptor = Vasopressin V1a receptor (Homo sapiens, UniProt P37288)
Melanocortin receptor 4 = Melanocortin receptor 4 (Homo sapiens, UniProt P32245)
Melanocortin receptor 4, sequence (P32245 whole entry): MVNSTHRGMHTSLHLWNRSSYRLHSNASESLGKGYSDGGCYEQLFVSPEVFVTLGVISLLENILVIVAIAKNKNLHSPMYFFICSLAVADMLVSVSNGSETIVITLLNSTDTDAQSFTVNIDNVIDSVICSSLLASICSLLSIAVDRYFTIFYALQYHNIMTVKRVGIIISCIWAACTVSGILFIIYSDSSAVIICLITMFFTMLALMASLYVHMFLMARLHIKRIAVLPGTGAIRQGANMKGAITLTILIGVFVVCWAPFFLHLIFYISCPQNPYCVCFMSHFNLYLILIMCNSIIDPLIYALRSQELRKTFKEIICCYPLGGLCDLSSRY

[9] = biological target: Sodium-dependent dopamine transporter (Homo sapiens, UniProt Q01959)
Sodium-dependent dopamine transporter, sequence (Q01959 whole entry): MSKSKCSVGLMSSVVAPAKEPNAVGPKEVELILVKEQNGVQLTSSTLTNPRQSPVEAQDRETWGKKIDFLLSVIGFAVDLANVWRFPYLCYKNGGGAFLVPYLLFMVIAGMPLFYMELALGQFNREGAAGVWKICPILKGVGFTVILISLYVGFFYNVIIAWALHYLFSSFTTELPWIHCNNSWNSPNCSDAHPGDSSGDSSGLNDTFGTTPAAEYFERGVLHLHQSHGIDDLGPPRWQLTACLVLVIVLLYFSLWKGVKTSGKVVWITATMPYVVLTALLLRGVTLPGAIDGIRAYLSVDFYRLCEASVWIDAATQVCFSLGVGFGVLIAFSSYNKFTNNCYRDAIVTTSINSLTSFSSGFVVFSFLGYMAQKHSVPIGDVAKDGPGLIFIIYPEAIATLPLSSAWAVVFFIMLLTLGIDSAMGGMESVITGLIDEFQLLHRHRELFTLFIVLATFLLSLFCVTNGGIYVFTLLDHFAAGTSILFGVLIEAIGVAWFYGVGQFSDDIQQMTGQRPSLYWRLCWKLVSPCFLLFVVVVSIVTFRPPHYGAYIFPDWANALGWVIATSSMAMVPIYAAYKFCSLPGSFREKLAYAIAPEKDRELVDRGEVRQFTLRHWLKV

[10] = biological target: T4, Muscarinic acetylcholine receptor M1 (Homo sapiens, UniProt P11229); format: functional
T4 sequence (P11229 whole entry): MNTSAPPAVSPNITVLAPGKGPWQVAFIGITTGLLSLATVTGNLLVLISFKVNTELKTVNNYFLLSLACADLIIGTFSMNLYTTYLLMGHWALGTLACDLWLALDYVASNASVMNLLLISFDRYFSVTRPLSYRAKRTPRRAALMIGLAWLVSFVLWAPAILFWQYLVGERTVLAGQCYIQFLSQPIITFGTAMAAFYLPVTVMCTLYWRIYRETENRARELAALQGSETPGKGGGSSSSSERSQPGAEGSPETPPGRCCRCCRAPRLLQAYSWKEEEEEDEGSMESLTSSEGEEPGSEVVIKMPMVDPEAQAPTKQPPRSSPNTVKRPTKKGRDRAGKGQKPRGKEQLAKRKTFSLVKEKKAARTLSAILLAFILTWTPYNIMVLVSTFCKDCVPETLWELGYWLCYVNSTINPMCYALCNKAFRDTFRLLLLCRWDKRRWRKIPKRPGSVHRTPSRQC

Histamine H1 receptor = Histamine H1 receptor (Homo sapiens, UniProt P35367)
Histamine H1 receptor, sequence (P35367 whole entry): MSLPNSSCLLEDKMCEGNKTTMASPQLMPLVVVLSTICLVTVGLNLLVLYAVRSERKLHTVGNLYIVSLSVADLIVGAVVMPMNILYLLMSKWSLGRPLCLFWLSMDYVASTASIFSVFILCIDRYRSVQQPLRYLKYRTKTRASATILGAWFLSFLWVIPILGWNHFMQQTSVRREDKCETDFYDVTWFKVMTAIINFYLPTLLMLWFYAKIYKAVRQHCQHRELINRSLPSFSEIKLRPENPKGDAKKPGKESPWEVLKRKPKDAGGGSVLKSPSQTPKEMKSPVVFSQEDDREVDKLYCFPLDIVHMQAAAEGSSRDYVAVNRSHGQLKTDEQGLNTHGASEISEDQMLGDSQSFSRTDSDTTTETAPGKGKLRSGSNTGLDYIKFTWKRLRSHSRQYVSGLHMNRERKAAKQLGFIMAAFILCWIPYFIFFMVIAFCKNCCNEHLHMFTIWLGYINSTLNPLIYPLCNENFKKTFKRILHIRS

[11] = biological target: Muscarinic acetylcholine receptor M3 (Homo sapiens, UniProt P20309)
Muscarinic acetylcholine receptor M3, sequence (P20309 whole entry): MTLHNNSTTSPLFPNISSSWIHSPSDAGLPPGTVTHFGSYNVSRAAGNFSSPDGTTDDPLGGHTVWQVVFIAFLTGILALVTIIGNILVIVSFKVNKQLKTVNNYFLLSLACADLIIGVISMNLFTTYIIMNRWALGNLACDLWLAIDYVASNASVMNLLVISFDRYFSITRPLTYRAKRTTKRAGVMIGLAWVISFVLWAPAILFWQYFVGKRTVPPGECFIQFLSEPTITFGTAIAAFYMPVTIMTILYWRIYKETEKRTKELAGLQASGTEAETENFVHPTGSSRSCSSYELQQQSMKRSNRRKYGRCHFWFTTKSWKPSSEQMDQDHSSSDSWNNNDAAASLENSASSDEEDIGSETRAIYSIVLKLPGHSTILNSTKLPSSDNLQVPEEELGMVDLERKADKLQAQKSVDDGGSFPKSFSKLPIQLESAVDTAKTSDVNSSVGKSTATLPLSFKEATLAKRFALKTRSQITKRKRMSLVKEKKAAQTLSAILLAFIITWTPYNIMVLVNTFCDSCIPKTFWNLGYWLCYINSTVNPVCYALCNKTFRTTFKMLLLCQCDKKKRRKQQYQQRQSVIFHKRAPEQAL

[12] = biological target: Prostaglandin G/H synthase 1 (Homo sapiens, UniProt P23219); format: functional
Prostaglandin G/H synthase 1, sequence (P23219 whole entry): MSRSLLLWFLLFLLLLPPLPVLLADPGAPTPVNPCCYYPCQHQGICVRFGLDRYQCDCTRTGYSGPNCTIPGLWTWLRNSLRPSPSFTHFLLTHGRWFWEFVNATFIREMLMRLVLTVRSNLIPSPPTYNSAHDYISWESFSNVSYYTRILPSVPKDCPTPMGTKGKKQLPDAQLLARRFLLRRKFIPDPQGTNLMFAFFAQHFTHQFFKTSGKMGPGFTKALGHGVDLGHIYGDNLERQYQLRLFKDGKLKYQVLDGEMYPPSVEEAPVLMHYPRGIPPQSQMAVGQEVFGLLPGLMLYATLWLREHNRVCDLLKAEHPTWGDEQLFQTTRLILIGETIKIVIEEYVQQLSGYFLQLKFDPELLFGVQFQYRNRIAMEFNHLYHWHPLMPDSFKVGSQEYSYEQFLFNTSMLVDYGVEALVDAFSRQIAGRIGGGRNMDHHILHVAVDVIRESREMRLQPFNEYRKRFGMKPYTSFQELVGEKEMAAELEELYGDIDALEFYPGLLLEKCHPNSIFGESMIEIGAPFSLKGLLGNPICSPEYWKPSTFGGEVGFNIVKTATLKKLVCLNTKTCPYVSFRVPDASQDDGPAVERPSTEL
Also: assay procedure not described here.

| Structure (SMILES) | AC50 [1] [µM] | AC50 [2] [µM] | AC50 [3] [µM] | AC50 (Mu-type opioid receptor) [µM] | AC50 [4] [µM] | AC50 (Prothrombin) [µM] | AC50 [5] [µM] | AC50 [6] [µM] | AC50 [7] [µM] | AC50 [8] [µM] | AC50 (Vasopressin V1a receptor) [µM] | AC50 (Melanocortin receptor 4) [µM] | AC50 [9] [µM] | AC50 [10] [µM] | AC50 (Histamine H1 receptor) [µM] | AC50 [11] [µM] | AC50 [12] [µM] |
| --- | --- | --- | --- | --- | --- | --- | --- | --- | --- | --- | --- | --- | --- | --- | --- | --- | --- |
| CC(=O)Oc1ccccc1C(=O)O [ASPIRIN] | > 30 | > 30 | > 30 | > 30 | > 30 | > 30 | > 10 | > 30 | > 30 | > 30 | > 30 | > 30 | > 30 | – | – | – | – |
| OCCOCCN1CCN(C(c2ccccc2)c2ccc(Cl)cc2)CC1 (centres undefined) [HYDROXYZINE] | – | > 10 | – | – | > 30 | – | > 10 | > 30 | – | – | > 10 | > 30 | > 10 | > 10 | 0.039 | > 10 | – |
| CCOC(=O)[C@H](CCc1ccccc1)N[C@@H](C)C(=O)N1Cc2ccccc2C[C@H]1C(=O)O | > 30 | > 10 | > 30 | > 30 | > 30 | > 30 | > 10 | > 30 | > 30 | > 30 | > 10 | > 30 | > 10 | – | – | – | > 30 |
| C[C@]12CCC(=O)C=C1CC[C@H]1[C@@H]3CC[C@](O)(C(=O)CO)[C@@]3(C)C[C@H](O)[C@@]12F [FLUDROCORTISONE] | – | > 30 | – | – | > 30 | – | > 10 | > 30 | – | – | > 30 | > 30 | > 30 | > 10 | > 10 | > 30 | – |
| NCC1(CC(=O)O)CCCCC1 [GABAPENTIN] | > 30 | > 30 | > 30 | > 30 | > 30 | > 30 | > 10 | > 30 | > 30 | > 30 | > 30 | > 30 | > 30 | – | – | – | > 30 |
| CCN(CC)CCn1c(=O)c(Cc2ccc(OC)cc2)nc2ccccc21 [CAROVERINE] | – | > 30 | – | – | > 30 | – | > 30 | > 30 | – | – | > 30 | > 30 | > 30 | > 30 | 25 | > 30 | – |
| Cc1c(C)c2c(c(C)c1O)CCC(C)(COc1ccc(CC3SC(=O)NC3=O)cc1)O2 (centres undefined) [TROGLITAZONE] | 3.96 | – | 4.9 | 14 | > 30 | > 30 | 21 | > 30 | 4.11 | 10.3 | > 30 | > 30 | 23.7 | – | – | – | 5.93 |
| C=CC1=C(C(=O)O)N2C(=O)[C@@H](NC(=O)/C(=N\O)c3csc(N)n3)[C@H]2SC1 | – | > 10 | – | – | > 30 | – | > 10 | > 30 | – | – | > 30 | > 30 | > 30 | > 10 | > 10 | > 30 | – |
